Laboratory results: patent US9125940B2, “Compositions and methods for treating macular edema” (priority 2011, dated 2015)

System: macular edema
Assay: Case report Example 1: patient with macular edema after central vein occlusion in the left eye, OCT, vision acuity and eye pressure
Type: in vivo, human
From the text: A patient experienced central vein occlusion in their left eye and subsequently suffered macular edema in 2005. Weak drusens were found in both of their eyes. […] The patient received corsteroid injection in the left eye. The macular edema went away for four months. However, the left eye pressure went up to 35-40 mmHg. Eye drops for lowering eye pressure were used to treat the high eye pressure. Within half a year, the patient developed cataract in their left eye and shortly thereafter advanced to a point that their left eye lost most vision and the eye specialist recommended surgery to remove the cataract. At the time of the surgery, it was discovered that the patient's macular edema had come back and it was rather severe. Avastin injection was then employed to treat macular edema. The edema went away for a month but still came back 2-3 months afterwards. At this point, the patient was notified that regular injection would be required for the rest of their life. As shown in the images from Optical Coherence Tomography (OCT) (FIG. 1), macular edema returned three months after the Avastin injection. Such was a repeated phenomenon since 2005, for more than three years. Macular edema re-occurred typically 3 months following Avastin injection. […].

[1] = June 2008, before treatment with the composition, FIG. 1

Avastin: Avastin injection employed to treat macular edema (anti-VEGF)
ocular pressure three months after injection [1]: 35 mmHg | vision acuity three months after injection [1]: 20/40 | time to re-occurrence of macular edema following injection (left eye, intravitreal injection, repeated for more than three years): ~3 months
